Experimental data taken from patent US5846939A, “Use of a decapeptide with benzodiazepine-type activity for preparing medicines and food supplements” (Societe Cooperative Agricole Laitiere D'Artois Et Des …, priority 1994, dated 1998).

Assays:
[1] = target: central benzodiazepine receptor; settings: radioligand of the kit; cited from earlier work
[2] = tested on: anxiety in the rat (elevated plus-maze); experiment: Tranquilizing activity, elevated plus-maze test; assay type: in vivo; settings: intraperitoneal, diazepam 2 mg/kg, hydrolysate 3 mg/kg
Excerpt: To measure anxiety in the rat, the elevated plus-maze test described by Pellow et al. (14) was used which is based on neophobia in the rat. The plus-maze had four branches that were 50 cm long and 10 cm wide. The two closed branches were surrounded by walls that were 25 cm high (the top being left open for observation) and the entire maze was 50 cm above the ground. The center of the maze communicated with the two open arms and the two closed arms.
The number of times the animal enters the open arms, the closed arms, and the total number of times the rat enters the arms are important parameters. The time passed in each type of branch was also measured. Other parameters (a total of 22) such as the number of times the rat stood up, the number of times it groomed itself (signs of anxiety), or latency of first entry into an open or closed branch were taken into account. […] Its entire behavior was filmed by video camera, which procedure served to avoid errors.
The control group (CTR) received an intraperitoneal injection of solvent only, which solvent was a mixture of gelatin and mannitol (0.5%/5%) dissolved in water. […] The animals in all of the groups were injected half an hour before going to the plus-maze. To begin the experiments, each rat was placed in the center of the apparatus.

SMILES | Ki [1] [nM] | number of entries into closed branches [2] | number of entries into open branches ([2]; control 1.5±0.3) | time spent in the open branches ([2]; control 19.3±4.4 s) [s]
CN1C(=O)CN=C(c2ccccc2F)c2cc([N+](=O)[O-])ccc21 [^3 H-methyl-flunitrazepam] | 1.2 | – | – | –
CN1C(=O)CN=C(c2ccccc2)c2cc(Cl)ccc21 [diazepam] | – | did not vary significantly | 3.0±0.4 | 70.1 ± 19.9
